Source: patent US12324893B2, “Triptan microporation delivery system” (PassPort Technologies, Inc., priority 2019, dated 2025)

Assays:
[1] = Pain by poration (Examples 7-9); type: in vivo, guinea pigs
Description: (§1) This example describes various effects of filament density. To investigate the effect of filament density on PK profile and side effects (pain by poration and skin irritation), these studies were conducted. The filament density mainly affects the area to be utilized for the transfer of body fluid and ingredients in between skin and patch. The range of filament density was 100 filaments/cm^2 to 400 filaments/cm^2, and the poration energy was from 3 to 4 mJ/filament.
(§2) This example describes various effects to heating energy. The poration energy is related to the pore shape such as depth and width.
(§3) This example describes the selection of a desirable filament array size. Assuming the higher dose than 2 mg dose with the conditions 400 filaments/cm^2 filament density and 4 or 5 mJ/filament energy, filament array size may need to be made bigger. The range of dose was 0.5 to 4 mg, and the range of filament array size was 1.0 to 2.0 cm^2.

[2] = system: skin; assay: Skin irritation at different poration conditions (Examples 7-9); type: in vivo, guinea pigs
Description: A skin irritation examination was performed following the patch removal. The skin irritation examination scale was an assessment of the skin directly under the matrix.
as §1, §2, §3

[3] = Administration route study in hairless rats (Example 4); type: in vivo; conditions: for AUC / Cmax / Tmax: rat, blood
Description: (§4) Hairless rats were used as experimental animals. After oral administration of a drug solution (2.0 ml) containing 2.0 mg of zolmitriptan, blood was collected at a desired time, each medicinal component was extracted according to a conventional method, then blood concentration was quantified by high performance liquid chromatography (LC-MS/MS).
as §4, with “intravenous” for “oral”, “(10 μl)” for “(2.0 ml)”, “2” for “2.0”
as §4, with “intravenous” for “oral”, “(200 μl)” for “(2.0 ml)”, “2” for “2.0”
Hairless rats were used as experimental animals. A drug patch was affixed on the flank side of skin of experimental animals that had undergone microporation treatment under the desired conditions. In this study, microporation condition of transdermal microporation was 400 pores/cm^2, 5.2 mJ/filament. The administration side was 1 cm^2. During the period where the patch was affixed, and after it had adhered, blood was collected at a desired time, each medicinal component was extracted according to a conventional method, then blood concentration was quantified by high performance liquid chromatography (LC-MS/MS). A Patch formulation of this study was 2 mg Zolmitriptan, sucrose 0.5 mg, AA 4 mg, 1 cm^2 non-woven matrix (EH-1212, WHC=4 mg/cm^2),
The given bioavailability of Table 5 is absolute bioavailability against IV injection.

[4] = as above; type: in vivo; conditions: Group 2: 2 mg zolmitriptan
[5] = Table 17 #1: dose 0.50 mg, 4 mJ/filament, 1.0 cm^2, 400 filaments/cm^2
[6] = Table 17 # 2: dose 2.00 mg, 4 mJ/filament, 1.0 cm^2, 400 filaments/cm^2
[7] = Table 17 # 3: dose 3.00 mg, 4 mJ/filament, 1.0 cm^2, 400 filaments/cm^2
[8] = Table 17 # 4: dose 4.00 mg, 4 mJ/filament, 1.5 cm^2, 400 filaments/cm^2
[9] = Table 17 # 5: dose 4.00 mg, 4 mJ/filament, 2.0 cm^2, 400 filaments/cm^2
[10] = Table 17 # 6: dose 4.00 mg, 5 mJ/filament, 1.5 cm^2, 400 filaments/cm^2
[11] = Table 13 # 1: 100 filaments/cm^2, 3 mJ/filament, 1.0 cm^2, 2.00 mg patch
[12] = Table 13 # 2: 200 filaments/cm^2, 3 mJ/filament, 1.0 cm^2, 2.00 mg patch
[13] = Table 13 # 3: 400 filaments/cm^2, 3 mJ/filament, 1.0 cm^2, 2.00 mg patch
[14] = Table 13 # 4: 100 filaments/cm^2, 4 mJ/filament, 1.0 cm^2, 2.00 mg patch
[15] = Table 13 # 5: 200 filaments/cm^2, 4 mJ/filament, 1.0 cm^2, 2.00 mg patch
[16] = Table 13 # 6: 400 filaments/cm^2, 4 mJ/filament, 1.0 cm^2, 2.00 mg patch
[17] = Table 15 # 1: 400 filaments/cm^2, 2 mJ/filament, 1.0 cm^2, 2.00 mg patch
[18] = Table 15 # 2: 400 filaments/cm^2, 3 mJ/filament, 1.0 cm^2, 2.00 mg patch
[19] = Table 15 # 3: 400 filaments/cm^2, 4 mJ/filament, 1.0 cm^2, 2.00 mg patch
[20] = Table 15 # 4: 400 filaments/cm^2, 5 mJ/filament, 1.0 cm^2, 2.00 mg patch
[21] = Group 1: 2 mg zolmitriptan, oral administration
[22] = Group 3: 2 mg zolmitriptan, intravenous injection
[23] = topical or ocular, Group 4: 2 mg zolmitriptan, transdermal microporation (400 pores/cm^2, 5.2 mJ/filament, 1 cm^2)
[24] = rat, blood, inhaled or intranasal

Pain by poration ± SD ([1]; Table 13 # 1: 100 filaments/cm^2, 3 mJ/filament, area 1.0 cm^2): 0.0 ± 0.0
Pain by poration ± SD ([1]; Table 13 # 2: 200 filaments/cm^2, 3 mJ/filament, area 1.0 cm^2): 0.6 ± 0.5
Pain by poration ± SD ([1]; Table 13 # 3: 400 filaments/cm^2, 3 mJ/filament, area 1.0 cm^2): 0.5 ± 0.6
Pain by poration ± SD ([1]; Table 13 # 4: 100 filaments/cm^2, 4 mJ/filament, area 1.0 cm^2): 0.8 ± 1.0
Pain by poration ± SD ([1]; Table 13 # 5: 200 filaments/cm^2, 4 mJ/filament, area 1.0 cm^2): 1.8 ± 0.4
Pain by poration ± SD ([1]; Table 13 # 6: 400 filaments/cm^2, 4 mJ/filament, area 1.0 cm^2): 1.8 ± 0.5
Pain by poration ± SD ([1]; Table 15 # 1: 400 filaments/cm^2, 2 mJ/filament, area 1.0 cm^2): 0.3 ± 0.5
Pain by poration ± SD ([1]; Table 15 # 2: 400 filaments/cm^2, 3 mJ/filament, area 1.0 cm^2): 0.5 ± 0.6
Pain by poration ± SD ([1]; Table 15 # 3: 400 filaments/cm^2, 4 mJ/filament, area 1.0 cm^2): 1.8 ± 0.5
Pain by poration ± SD ([1]; Table 15 # 4: 400 filaments/cm^2, 5 mJ/filament, area 1.0 cm^2): 0.8 ± 1.0
Pain by poration ± SD [1, 5]: 0.5 ± 0.6
Pain by poration ± SD [1, 6]: 1.8 ± 0.5
Pain by poration ± SD [1, 7]: 0.3 ± 0.5
Pain by poration ± SD [1, 8]: 2.3 ± 0.5
Pain by poration ± SD [1, 9]: 2.8 ± 0.5
Pain by poration ± SD [1, 10]: 2.8 ± 0.5
BA ([3]; Group 1: 2 mg zolmitriptan, oral administration, absolute bioavailability against IV injection): 11.4%
BA ([3]; Group 3: 2 mg zolmitriptan, intravenous injection, absolute bioavailability against IV injection (reference)): 100.0%
BA ([3]; Group 4: 2 mg zolmitriptan, transdermal microporation (400 pores/cm^2, 5.2 mJ/filament, 1 cm^2), absolute bioavailability against IV injection): 71.4%
AUC [3, 21]: 227 ng·h/mL
Cmax [3, 21]: 74 ng/mL
Tmax [3, 21]: 4.5 h
AUC [3, 22]: 2000 ng·h/mL
Cmax [3, 22]: 5020 ng/mL
Tmax [3, 22]: 0.05 h
Cmax [3, 23]: 577 ng/mL
Tmax [3, 23]: 0.63 h
AUC ([3]; topical or ocular, Group 4: 2 mg zolmitriptan, transdermal microporation (400 pores/cm^2, 5.2 mJ/filament, 1 cm^2; patch with sucrose 0.5 mg, AA 4 mg)): 1430 ng·h/mL
BA ([4]; intranasal administration, absolute bioavailability against IV injection): 12.0%
AUC [4, 24]: 239 ng·h/mL
Cmax [4, 24]: 127 ng/mL
Tmax [4, 24]: 2.25 h
Structure (SMILES): CN(C)CCc1c[nH]c2ccc(C[C@H]3COC(=O)N3)cc12 [Zolmitriptan]
Skin irritation relief ± SD (Days to recover to score 1) [2, 11]: 0.0 ± 0.0 days
Skin irritation ± SD (Just after patch removal) [2, 11]: 0.8 ± 0.3
Skin irritation relief ± SD (Days to recover to score 1) [2, 12]: 1.8 ± 0.8 days
Skin irritation ± SD (Just after patch removal) [2, 12]: 2.2 ± 0.4
Skin irritation relief ± SD (Days to recover to score 1) [2, 13]: 2.8 ± 1.3 days
Skin irritation ± SD (Just after patch removal) [2, 13]: 1.9 ± 0.3
Skin irritation relief ± SD (Days to recover to score 1) [2, 14]: 1.8 ± 0.5 days
Skin irritation ± SD (Just after patch removal) [2, 14]: 1.6 ± 0.3
Skin irritation relief ± SD (Days to recover to score 1) [2, 15]: 3.0 ± 1.9 days
Skin irritation ± SD (Just after patch removal) [2, 15]: 2.1 ± 0.7
Skin irritation relief ± SD (Days to recover to score 1) [2, 16]: 3.2 ± 0.8 days
Skin irritation ± SD (Just after patch removal) [2, 16]: 2.1 ± 0.3
Skin irritation relief ± SD (Days to recover to score 1) [2, 17]: 2.3 ± 1.2 days
Skin irritation ± SD (Just after patch removal) [2, 17]: 1.8 ± 0.3
Skin irritation relief ± SD (Days to recover to score 1) [2, 18]: 2.8 ± 1.3 days
Skin irritation ± SD (Just after patch removal) [2, 18]: 1.9 ± 0.3
Skin irritation relief ± SD (Days to recover to score 1) [2, 19]: 3.2 ± 0.8 days
Skin irritation ± SD (Just after patch removal) [2, 19]: 2.1 ± 0.3
Skin irritation relief ± SD (Days to recover to score 1) [2, 20]: 2.6 ± 1.7 days
Skin irritation ± SD (Just after patch removal) [2, 20]: 2.3 ± 0.3
Skin irritation relief ± SD (Days to recover to score 1) [2, 5]: 2.5 ± 1.0 days
Skin irritation ± SD (Just after patch removal) [2, 5]: 1.6 ± 0.5
Skin irritation relief ± SD (Days to recover to score 1) [2, 6]: 3.2 ± 0.8 days
Skin irritation ± SD (Just after patch removal) [2, 6]: 2.1 ± 0.3
Skin irritation relief ± SD (Days to recover to score 1) [2, 7]: 3.0 ± 0.5 days
Skin irritation ± SD (Just after patch removal) [2, 7]: 2.0 ± 0.0
Skin irritation ± SD (Just after patch removal) [2, 8]: 2.1 ± 0.3
Skin irritation relief ± SD (Days to recover to score 1) [2, 9]: 4.3 ± 0.9 days
Skin irritation ± SD (Just after patch removal) [2, 9]: 2.0 ± 0.0
Skin irritation relief ± SD (Days to recover to score 1) [2, 10]: 5.5 ± 1.9 days
Skin irritation ± SD (Just after patch removal) [2, 10]: 1.9 ± 0.3
